ChEMBL document CHEMBL1139192, “Novel bis(indolyl)maleimide pyridinophanes that are potent, selective inhibitors of glycogen synthase kinase-3” (Bioorg Med Chem Lett, 2007)

What was measured:
[1] = molecular target: Macrophage colony-stimulating factor 1 receptor (Homo sapiens) (UniProt P07333); assay: Residual activity of human Fms at 1 uM relative to control
[2] = molecular target: Serine/threonine-protein kinase N2 (Homo sapiens) (UniProt Q16513); assay: Residual activity of human PRK2 at 1 uM relative to control
[3] = molecular target: T1, Inhibitor of nuclear factor kappa-B kinase subunit beta (Homo sapiens) (UniProt O14920); assay: Residual activity of human IKK-beta at 1 uM relative to control
T1 sequence (whole entry): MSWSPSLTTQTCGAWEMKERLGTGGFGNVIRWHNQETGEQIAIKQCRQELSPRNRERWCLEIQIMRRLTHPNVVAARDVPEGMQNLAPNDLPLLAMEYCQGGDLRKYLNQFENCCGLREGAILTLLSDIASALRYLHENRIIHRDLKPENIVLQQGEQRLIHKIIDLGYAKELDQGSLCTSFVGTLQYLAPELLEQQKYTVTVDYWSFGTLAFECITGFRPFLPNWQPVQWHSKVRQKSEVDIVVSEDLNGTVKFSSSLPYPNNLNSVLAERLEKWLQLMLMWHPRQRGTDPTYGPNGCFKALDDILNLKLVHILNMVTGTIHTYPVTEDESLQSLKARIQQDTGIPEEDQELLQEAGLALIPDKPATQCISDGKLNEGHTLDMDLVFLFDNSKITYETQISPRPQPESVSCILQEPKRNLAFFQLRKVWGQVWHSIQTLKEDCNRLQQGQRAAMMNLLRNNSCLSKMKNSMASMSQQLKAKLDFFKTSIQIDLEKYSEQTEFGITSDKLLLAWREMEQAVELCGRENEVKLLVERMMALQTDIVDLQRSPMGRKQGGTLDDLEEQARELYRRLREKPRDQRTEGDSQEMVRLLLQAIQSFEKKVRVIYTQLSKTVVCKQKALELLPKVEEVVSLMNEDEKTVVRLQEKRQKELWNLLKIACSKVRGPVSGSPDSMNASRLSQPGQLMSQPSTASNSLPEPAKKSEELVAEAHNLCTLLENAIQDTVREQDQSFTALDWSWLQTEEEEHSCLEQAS

[4] = molecular target: Protein kinase C beta type (Homo sapiens, UniProt P05771); assay: Residual activity of human PKCbeta2 at 1 uM relative to control
[5] = molecular target: Casein kinase II (Homo sapiens) (UniProt P67870+P68400+P19784); assay: Inhibition of human CK2 at 1 uM relative to control; values are per cent of control
Homo sapiens [6] = species: Homo sapiens; assay: Inhibition of human PKA at 1 uM relative to control; values are per cent of control
[7] = molecular target: Tyrosine-protein kinase SYK (Homo sapiens) (UniProt P43405); assay: Inhibition of human Syk at 1 uM relative to control; values are per cent of control
[8] = molecular target: Serine/threonine-protein kinase PAK 2 (Homo sapiens) (UniProt Q13177); assay: Inhibition of human PAK2 at 1 uM relative to control; values are per cent of control
[9] = molecular target: Ribosomal protein S6 kinase alpha-2 (Homo sapiens) (UniProt Q15349); assay: Inhibition of human Rsk2 at 1 uM relative to control; values are per cent of control
[10] = molecular target: T2, Protein kinase C iota type (Homo sapiens) (UniProt P41743); assay: Inhibition of human PKCiota at 1 uM relative to control; values are per cent of control
T2 sequence (whole entry): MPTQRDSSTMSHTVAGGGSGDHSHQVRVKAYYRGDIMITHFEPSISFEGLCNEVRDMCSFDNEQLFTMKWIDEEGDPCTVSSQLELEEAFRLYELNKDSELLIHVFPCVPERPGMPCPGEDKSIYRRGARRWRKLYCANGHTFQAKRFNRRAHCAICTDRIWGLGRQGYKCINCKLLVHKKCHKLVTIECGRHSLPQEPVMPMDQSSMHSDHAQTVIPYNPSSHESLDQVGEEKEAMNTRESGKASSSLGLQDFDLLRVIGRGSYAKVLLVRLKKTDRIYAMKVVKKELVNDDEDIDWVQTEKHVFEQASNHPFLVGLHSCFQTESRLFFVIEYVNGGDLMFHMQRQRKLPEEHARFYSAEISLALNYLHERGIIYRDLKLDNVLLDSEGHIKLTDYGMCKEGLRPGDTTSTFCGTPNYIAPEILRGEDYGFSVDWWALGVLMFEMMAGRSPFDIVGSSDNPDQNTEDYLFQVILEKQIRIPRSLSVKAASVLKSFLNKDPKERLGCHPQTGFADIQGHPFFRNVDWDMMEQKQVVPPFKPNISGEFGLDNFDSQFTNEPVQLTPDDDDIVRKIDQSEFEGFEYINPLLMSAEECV

Homo sapiens [11] = species: Homo sapiens; assay: Inhibition of human CDK7/Cyclin H at 1 uM relative to control; values are per cent of control

Chain of Ribosomal protein S6 kinase alpha-2 (Homo sapiens) (Q15349 whole entry): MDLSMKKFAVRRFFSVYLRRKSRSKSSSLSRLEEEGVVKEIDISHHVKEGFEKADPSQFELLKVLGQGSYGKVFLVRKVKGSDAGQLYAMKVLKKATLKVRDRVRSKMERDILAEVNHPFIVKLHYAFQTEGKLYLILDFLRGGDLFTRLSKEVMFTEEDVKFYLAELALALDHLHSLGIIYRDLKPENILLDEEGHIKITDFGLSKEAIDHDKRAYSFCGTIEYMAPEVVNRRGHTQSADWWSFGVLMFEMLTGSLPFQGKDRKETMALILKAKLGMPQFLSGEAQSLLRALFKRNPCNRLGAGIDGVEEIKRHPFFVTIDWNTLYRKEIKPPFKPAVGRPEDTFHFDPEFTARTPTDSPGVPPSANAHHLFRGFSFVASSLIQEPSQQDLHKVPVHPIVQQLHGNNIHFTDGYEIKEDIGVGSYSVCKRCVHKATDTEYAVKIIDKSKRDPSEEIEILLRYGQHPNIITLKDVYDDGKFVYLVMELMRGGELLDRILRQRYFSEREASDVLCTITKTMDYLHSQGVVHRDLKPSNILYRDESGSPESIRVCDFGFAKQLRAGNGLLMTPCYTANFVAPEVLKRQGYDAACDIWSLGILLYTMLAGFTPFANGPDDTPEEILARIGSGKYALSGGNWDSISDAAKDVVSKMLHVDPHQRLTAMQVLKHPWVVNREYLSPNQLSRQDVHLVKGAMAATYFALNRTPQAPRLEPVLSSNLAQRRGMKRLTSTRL
Chain of Macrophage colony-stimulating factor 1 receptor (Homo sapiens) (P07333 whole entry): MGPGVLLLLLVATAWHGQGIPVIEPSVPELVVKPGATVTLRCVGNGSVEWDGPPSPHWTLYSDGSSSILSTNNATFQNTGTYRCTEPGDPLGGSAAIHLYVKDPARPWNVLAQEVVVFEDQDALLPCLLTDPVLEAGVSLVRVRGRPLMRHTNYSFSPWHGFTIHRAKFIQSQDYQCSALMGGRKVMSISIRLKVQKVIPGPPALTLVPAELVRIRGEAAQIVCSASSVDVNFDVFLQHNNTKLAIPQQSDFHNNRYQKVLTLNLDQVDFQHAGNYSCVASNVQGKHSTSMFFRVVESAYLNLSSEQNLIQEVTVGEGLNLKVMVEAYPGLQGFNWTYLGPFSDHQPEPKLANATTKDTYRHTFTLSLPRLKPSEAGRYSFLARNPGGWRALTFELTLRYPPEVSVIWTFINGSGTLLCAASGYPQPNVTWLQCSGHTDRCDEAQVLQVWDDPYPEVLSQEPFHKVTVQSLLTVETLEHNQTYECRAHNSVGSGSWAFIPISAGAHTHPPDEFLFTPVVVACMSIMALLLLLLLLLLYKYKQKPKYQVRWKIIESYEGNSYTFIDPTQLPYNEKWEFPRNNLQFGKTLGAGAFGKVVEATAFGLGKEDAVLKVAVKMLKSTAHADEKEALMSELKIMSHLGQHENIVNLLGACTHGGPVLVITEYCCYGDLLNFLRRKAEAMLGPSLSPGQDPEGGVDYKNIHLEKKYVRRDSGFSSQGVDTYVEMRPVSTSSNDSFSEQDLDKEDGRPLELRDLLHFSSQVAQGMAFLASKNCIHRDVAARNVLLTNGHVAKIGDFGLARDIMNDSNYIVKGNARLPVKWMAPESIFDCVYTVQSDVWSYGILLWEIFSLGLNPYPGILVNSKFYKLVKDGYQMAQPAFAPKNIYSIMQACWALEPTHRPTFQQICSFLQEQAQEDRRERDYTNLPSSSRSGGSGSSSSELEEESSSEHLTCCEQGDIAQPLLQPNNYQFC
Chain of Serine/threonine-protein kinase N2 (Homo sapiens) (Q16513 whole entry, looked up): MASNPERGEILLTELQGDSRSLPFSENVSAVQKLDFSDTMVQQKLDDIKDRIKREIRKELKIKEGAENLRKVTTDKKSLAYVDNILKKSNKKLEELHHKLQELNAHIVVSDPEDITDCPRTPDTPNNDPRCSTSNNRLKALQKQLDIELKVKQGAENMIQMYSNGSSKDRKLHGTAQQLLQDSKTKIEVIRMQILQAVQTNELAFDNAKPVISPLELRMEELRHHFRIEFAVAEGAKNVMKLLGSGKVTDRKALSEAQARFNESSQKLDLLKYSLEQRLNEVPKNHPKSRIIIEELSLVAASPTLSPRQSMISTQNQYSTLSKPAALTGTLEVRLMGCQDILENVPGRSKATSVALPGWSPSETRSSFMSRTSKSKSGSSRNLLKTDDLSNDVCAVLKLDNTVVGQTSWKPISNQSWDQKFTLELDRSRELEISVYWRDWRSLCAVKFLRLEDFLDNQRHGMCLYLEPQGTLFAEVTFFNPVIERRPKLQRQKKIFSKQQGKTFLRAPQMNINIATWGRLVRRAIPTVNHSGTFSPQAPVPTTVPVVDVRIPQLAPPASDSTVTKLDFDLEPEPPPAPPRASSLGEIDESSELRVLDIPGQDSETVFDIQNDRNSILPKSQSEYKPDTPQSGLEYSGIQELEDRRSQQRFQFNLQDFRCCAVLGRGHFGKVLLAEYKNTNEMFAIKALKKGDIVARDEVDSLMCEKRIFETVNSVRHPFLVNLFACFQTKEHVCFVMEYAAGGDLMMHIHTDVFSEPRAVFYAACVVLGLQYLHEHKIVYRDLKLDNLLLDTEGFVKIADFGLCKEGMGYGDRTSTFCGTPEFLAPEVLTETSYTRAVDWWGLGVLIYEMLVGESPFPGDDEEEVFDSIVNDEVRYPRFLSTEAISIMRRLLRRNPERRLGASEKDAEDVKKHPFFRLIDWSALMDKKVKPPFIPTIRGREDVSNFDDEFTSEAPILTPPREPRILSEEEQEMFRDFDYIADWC
Chain of Serine/threonine-protein kinase PAK 2 (Homo sapiens) (Q13177 whole entry): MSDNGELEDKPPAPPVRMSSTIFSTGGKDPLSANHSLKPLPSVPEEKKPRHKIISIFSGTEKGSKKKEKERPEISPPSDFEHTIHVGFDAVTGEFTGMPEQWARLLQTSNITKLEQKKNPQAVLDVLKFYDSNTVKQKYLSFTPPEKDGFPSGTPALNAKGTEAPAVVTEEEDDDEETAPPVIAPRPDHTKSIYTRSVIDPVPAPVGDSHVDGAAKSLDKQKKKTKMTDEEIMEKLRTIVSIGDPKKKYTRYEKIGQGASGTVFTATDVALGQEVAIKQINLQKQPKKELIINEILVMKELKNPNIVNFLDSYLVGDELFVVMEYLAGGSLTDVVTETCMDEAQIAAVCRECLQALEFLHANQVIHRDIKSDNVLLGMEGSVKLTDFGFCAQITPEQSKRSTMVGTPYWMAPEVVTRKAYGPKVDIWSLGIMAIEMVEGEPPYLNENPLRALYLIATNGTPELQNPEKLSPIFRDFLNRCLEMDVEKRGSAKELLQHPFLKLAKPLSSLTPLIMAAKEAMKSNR
Chain of Protein kinase C beta type (P05771 2-671 limits assumed): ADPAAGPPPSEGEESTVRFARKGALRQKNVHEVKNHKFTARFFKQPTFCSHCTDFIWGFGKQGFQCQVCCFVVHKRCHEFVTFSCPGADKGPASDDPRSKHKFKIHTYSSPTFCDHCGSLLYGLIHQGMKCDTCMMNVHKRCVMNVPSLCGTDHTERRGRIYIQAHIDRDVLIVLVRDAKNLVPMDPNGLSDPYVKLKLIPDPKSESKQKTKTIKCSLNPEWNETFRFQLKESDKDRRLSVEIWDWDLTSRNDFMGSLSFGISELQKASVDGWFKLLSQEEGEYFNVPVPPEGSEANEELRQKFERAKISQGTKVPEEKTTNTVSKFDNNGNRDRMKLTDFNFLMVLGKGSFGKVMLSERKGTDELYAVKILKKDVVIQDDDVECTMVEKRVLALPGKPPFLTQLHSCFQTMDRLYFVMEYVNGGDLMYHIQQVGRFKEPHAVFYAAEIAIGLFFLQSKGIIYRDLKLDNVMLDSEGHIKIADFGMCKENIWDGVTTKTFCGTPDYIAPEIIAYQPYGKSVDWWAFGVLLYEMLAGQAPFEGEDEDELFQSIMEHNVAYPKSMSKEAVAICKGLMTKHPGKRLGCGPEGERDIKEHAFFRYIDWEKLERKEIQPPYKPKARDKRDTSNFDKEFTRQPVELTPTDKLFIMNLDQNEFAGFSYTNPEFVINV

residual activity [1] [%]	residual activity [2] [%]	residual activity [3] [%]	residual activity [4] [%]	residual activity [5] [%]	residual activity (Homo sapiens [6]) [%]	residual activity [7] [%]	residual activity [8] [%]	residual activity [9] [%]	residual activity [10] [%]	residual activity (Homo sapiens [11]) [%]	SMILES
94	106	128	64	107	90	86	93	32	85	89	CN(C)c1nc2ccc1CCCn1cc(c3ccccc31)C1=C(C(=O)NC1=O)c1cn(c3ccccc13)CC2
101	113	124	68	111	95	101	103	10	109	108	CN(C)c1cc2cc(n1)CCCn1cc(c3ccccc31)C1=C(C(=O)NC1=O)c1cn(c3ccccc13)CCC2
106	126	130	77	113	102	109	102	63	97	111	O=C1NC(=O)C2=C1c1cn(c3ccccc13)CCCc1ccc(c(N3CCCC3)n1)CCCn1cc2c2ccccc21
99	110	125	74	108	104	105	100	12	102	107	O=C1NC(=O)C2=C1c1cn(c3ccccc13)CCCc1cc(nc(N3CCCC3)c1)CCCn1cc2c2ccccc21
